How the values were obtained:
Assay in all cases: kinome screen (33PanQinase)
Type in all cases: biochemical
[1] = target: T1, CDK17/p35NCK (Homo sapiens, UniProt Q00537)
T1 construct: purchased Reaction Biology Europe GmbH (formerly ProQinase)
Protocol: (§1) The Kinome Screening was performed by Reaction Biology Europe GmbH (http://reactionbiology.com; Freiburg i. Br., Germany).

[2] = target: T2, EIF2AK3 (Homo sapiens, UniProt Q9NZJ5)
T2 construct: purchased Reaction Biology Europe GmbH (formerly ProQinase)
T2 sequence (Q9NZJ5 30-1116): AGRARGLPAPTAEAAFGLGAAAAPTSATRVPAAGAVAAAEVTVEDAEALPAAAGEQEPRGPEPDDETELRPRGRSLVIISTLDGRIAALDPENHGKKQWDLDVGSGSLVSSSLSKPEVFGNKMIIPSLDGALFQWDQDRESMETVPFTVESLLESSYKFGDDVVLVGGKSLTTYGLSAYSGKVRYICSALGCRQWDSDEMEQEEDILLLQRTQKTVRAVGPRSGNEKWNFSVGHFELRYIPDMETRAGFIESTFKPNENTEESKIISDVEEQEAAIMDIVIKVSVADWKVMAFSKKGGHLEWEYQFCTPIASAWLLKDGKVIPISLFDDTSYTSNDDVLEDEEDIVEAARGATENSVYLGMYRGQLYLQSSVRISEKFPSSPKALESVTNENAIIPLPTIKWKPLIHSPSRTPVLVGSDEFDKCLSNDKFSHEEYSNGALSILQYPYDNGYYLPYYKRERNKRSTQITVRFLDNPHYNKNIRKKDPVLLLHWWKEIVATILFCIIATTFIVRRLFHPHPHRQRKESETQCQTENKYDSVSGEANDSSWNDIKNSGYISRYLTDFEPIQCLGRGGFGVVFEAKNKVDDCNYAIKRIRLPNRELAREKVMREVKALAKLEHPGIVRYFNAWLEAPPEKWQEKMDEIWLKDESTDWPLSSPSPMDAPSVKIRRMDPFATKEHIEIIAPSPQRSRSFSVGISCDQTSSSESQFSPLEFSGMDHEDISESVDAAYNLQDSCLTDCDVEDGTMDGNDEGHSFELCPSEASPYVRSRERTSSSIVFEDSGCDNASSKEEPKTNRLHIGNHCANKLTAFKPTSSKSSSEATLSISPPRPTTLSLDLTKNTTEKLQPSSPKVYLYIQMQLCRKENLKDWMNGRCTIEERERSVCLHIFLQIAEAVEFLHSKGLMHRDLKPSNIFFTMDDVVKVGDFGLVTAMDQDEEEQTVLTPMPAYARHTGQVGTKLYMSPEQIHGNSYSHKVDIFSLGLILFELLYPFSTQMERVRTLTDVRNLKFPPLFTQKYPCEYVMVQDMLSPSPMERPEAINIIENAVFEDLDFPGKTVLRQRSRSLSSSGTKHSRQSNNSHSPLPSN
Protocol: as §1

[3] = target: T3, PKCμ (Homo sapiens, UniProt Q15139)
T3 construct: purchased Reaction Biology Europe GmbH (formerly ProQinase)
T3 sequence (Q15139 1-912): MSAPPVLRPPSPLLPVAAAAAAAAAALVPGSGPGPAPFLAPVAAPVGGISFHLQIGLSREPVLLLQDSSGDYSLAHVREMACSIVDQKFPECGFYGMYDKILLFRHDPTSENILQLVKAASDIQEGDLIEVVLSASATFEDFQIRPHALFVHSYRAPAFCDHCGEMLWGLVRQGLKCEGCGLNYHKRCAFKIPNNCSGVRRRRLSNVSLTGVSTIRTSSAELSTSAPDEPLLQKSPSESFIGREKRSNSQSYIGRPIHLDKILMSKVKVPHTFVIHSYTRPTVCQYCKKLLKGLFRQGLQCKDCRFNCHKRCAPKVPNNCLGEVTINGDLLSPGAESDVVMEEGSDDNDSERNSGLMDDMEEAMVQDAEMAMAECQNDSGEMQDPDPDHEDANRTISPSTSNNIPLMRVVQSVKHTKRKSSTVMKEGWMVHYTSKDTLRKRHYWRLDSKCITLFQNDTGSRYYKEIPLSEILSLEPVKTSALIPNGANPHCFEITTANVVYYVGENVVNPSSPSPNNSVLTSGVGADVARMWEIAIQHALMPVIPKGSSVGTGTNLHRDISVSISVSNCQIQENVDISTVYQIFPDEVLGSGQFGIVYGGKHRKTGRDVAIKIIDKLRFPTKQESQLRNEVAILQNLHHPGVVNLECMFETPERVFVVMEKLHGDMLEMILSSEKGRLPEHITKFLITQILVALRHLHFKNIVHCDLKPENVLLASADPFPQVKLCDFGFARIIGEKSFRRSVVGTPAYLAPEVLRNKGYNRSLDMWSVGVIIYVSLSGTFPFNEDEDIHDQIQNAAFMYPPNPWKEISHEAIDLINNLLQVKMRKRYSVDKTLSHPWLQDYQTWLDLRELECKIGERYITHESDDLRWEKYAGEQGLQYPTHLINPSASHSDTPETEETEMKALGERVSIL
Protocol: as §1

[4] = target: T4, ROS (Homo sapiens, UniProt P08922)
T4 construct: purchased Reaction Biology Europe GmbH (formerly ProQinase)
Protocol: as §1

T4 sequence (P08922 28-2347): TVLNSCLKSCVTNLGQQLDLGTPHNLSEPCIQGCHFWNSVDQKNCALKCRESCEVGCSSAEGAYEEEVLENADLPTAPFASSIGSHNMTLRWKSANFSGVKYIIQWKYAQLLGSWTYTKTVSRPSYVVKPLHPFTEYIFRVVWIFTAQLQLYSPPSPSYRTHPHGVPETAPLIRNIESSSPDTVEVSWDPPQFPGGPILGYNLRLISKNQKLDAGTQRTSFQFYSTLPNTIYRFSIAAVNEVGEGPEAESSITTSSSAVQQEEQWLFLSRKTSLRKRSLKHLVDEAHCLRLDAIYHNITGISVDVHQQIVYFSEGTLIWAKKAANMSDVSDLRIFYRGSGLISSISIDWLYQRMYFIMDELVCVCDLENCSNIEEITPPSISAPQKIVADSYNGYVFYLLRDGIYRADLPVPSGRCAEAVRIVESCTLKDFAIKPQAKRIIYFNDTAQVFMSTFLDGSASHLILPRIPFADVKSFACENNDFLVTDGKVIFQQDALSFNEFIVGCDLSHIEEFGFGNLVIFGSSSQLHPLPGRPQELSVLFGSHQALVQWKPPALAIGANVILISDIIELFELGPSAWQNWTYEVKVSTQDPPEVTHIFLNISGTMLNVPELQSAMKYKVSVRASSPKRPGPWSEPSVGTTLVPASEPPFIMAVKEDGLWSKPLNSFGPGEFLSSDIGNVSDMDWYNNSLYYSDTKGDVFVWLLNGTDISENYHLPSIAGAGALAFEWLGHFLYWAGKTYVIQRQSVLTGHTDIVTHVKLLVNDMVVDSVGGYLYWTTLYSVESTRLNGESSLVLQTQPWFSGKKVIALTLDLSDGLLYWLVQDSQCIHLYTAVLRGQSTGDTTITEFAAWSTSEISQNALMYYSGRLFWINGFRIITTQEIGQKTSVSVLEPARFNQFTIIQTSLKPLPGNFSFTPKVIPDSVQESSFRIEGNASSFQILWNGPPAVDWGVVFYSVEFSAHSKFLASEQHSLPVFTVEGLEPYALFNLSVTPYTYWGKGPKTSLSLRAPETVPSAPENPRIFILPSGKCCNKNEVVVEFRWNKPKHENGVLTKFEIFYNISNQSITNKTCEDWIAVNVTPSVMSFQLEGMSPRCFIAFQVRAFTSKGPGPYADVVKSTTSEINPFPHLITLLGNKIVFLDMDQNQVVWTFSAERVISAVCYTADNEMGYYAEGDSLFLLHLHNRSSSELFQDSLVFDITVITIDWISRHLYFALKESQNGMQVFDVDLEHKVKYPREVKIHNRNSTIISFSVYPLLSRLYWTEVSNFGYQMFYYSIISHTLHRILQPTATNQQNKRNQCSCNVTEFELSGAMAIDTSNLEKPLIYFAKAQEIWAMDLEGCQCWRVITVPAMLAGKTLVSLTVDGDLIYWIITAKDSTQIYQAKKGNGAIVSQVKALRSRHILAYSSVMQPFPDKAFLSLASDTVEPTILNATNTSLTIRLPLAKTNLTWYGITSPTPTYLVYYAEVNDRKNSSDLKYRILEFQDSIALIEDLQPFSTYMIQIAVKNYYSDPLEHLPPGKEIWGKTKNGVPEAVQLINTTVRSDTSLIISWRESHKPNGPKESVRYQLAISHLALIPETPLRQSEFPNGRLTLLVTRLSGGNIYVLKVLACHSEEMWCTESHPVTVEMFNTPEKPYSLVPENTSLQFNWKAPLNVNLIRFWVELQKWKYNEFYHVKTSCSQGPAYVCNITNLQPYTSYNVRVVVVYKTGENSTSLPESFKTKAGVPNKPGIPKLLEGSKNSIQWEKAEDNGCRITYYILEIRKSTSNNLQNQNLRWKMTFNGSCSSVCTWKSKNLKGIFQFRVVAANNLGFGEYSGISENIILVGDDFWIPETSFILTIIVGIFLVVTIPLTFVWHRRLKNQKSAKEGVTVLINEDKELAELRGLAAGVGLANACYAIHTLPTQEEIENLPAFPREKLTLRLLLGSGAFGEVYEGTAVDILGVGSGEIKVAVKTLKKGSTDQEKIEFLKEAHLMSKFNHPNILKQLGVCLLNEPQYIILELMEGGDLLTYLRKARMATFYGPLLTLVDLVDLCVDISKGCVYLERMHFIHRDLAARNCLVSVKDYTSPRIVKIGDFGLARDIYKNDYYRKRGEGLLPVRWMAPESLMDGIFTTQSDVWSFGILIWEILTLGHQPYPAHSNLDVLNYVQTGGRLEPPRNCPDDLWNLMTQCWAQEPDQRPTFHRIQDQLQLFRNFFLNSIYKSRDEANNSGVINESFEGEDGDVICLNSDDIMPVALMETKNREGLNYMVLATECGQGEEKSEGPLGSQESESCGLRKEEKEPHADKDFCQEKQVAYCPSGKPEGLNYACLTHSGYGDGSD
T1 sequence (Q00537 whole entry): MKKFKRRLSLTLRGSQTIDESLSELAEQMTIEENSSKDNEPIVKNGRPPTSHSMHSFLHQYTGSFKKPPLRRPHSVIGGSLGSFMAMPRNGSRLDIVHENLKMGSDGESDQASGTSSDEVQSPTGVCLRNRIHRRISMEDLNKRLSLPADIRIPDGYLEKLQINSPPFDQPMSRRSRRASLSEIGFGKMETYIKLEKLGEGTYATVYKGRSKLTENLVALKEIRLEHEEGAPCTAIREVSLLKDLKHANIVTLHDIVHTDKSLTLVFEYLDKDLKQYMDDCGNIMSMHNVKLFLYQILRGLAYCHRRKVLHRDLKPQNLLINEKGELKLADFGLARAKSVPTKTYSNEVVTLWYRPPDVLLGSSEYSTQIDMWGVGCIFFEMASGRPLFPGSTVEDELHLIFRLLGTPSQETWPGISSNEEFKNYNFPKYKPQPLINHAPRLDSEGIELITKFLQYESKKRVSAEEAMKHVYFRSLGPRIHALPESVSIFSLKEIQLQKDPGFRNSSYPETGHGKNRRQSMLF
T1 sequence (Q15078 whole entry partner): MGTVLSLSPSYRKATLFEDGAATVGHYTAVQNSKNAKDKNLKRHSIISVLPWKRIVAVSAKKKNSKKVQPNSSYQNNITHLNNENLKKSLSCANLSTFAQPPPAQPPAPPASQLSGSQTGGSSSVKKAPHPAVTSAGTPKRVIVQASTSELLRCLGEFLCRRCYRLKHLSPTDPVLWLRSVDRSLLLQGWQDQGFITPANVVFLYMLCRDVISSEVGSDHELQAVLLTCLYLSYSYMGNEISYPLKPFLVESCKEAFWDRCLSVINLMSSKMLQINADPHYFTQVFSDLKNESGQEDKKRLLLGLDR

Compound: c1ccc(CNc2cc(-c3c[nH]c4ncccc34)ccn2)cc1 [meriolin 36]
- residual kinase activity ([1]; 0.3 µM): 20 % of control
- residual kinase activity ([1]; 3 µM): 10 % of control
- residual kinase activity ([2]; 0.3 µM): 81 % of control
- residual kinase activity ([2]; 3 µM): 74 % of control
- residual kinase activity ([3]; 0.3 µM): 63 % of control
- residual kinase activity ([3]; 3 µM): 23 % of control
- residual kinase activity ([4]; 0.3 µM): 26 % of control
- residual kinase activity ([4]; 3 µM): 5 % of control

Compound: COc1ccnc2[nH]cc(-c3cc(N)nc(N)c3)c12 [meriolin 16]
- residual kinase activity ([1]; 0.03 µM): 46 % of control
- residual kinase activity ([1]; 0.3 µM): 24 % of control
- residual kinase activity ([2]; 0.03 µM): 87 % of control
- residual kinase activity ([2]; 0.3 µM): 90 % of control
- residual kinase activity ([3]; 0.03 µM): 77 % of control
- residual kinase activity ([3]; 0.3 µM): 24 % of control
- residual kinase activity ([4]; 0.03 µM): 92 % of control
- residual kinase activity ([4]; 0.3 µM): 81 % of control

— publication PMC11167047 (Cell Death Discovery, 2024)
